Measurements: ChEMBL document CHEMBL3727373, “Phosphoglycerate kinase inhibitors” (2012)

Biological target: T1, Phosphoglycerate kinase 1 (Homo sapiens, UniProt P00558)
T1 sequence (P00558 whole entry): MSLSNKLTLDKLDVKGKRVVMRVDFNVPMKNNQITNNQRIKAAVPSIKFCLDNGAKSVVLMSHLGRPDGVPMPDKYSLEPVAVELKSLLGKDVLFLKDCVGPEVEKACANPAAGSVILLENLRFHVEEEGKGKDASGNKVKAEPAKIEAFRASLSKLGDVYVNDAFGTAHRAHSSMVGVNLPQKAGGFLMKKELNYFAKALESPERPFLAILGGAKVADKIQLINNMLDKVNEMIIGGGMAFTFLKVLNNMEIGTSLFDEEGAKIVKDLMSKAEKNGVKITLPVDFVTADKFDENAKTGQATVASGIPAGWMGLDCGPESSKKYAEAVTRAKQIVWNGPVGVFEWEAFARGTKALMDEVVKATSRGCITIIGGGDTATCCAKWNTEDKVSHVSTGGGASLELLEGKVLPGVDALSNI
Experiment: Inhibition of PGK1 (unknown origin) pre-incubated with enzyme before 3-phosphoglycerate substrate addition and incubated for 30 mins in presence of NADH and ATP by glyceraldehyde P-dehydrogenase coupling based NADH fluorescence assay

| IC50 [nM] | Compound |
| --- | --- |
| 4640 | CCNc1nc2cc(OC)c(OC)cc2nc1Br |
| 1600 | CCNc1nc2cc(OC)c(Cl)cc2nc1-c1ccc2occc(=O)c2c1 |
| 633 | CCNc1nc2cc(Cl)c(C#CC(=O)OC)cc2nc1NCC |
| 7590 | COc1cc2nc(NCc3cccnc3)c(-c3ccncc3)nc2cc1OC |
| 66 | CCNc1nc2cc(Cl)c(C#CCOC)cc2nc1NCC |
| 741 | CCNc1nc2cc(OC)c(OC)cc2nc1NCCc1ccncc1 |
| 129 | CCNc1nc2cc(OC)c(Cl)cc2nc1NCc1cccnc1 |
| 8 | CCNc1nc2cc(C#CCCO)c(Cl)cc2nc1NCCN1CCN(C)CC1 |
| 710 | CCNc1nc2cc(OC)c(OC)cc2nc1NCc1cccnc1 |
| 2100 | CCNc1nc2cc(OC)c(Cl)cc2nc1-c1cccc(Cl)c1 |
| 42 | CCNc1nc2cc(Cl)c(C#CCCCO)cc2nc1NCC |
| 10000 | COc1cc2nc(NCCCN3CCCC3)c(-c3ccncc3)nc2cc1OC |
| 41 | CCNc1nc2cc(C#CCCO)c(Cl)cc2nc1Cl |
| 1180 | CCNc1nc2cc(OC)c(Cl)cc2nc1Cl |
| 19 | CCNc1nc2cc(Cl)c(C#CC3CC3)cc2nc1NCC |
| 91 | CCNc1nc2cc(OC)c(Cl)cc2nc1-c1cnn(Cc2ccccc2)c1 |
| 270 | CCC#Cc1cc2nc(NCC)c(NCC)nc2cc1Cl |
| 385 | CCNc1nc2cc(Cl)c(C#CCCCCO)cc2nc1NCC |
| 2530 | CCNc1nc2cc(OC)c(OC)cc2nc1NC |
| 16 | CCNc1nc2cc(C#CCCO)c(Cl)cc2nc1NCCCN1CCN(C)CC1 |
| 9000 | CCNc1nc2cc(Cl)c(CC(=O)CCC(=O)OC)cc2nc1NCC |
| 4360 | CCNc1nc2cc(OC)c(OC)cc2nc1NCCCN1CCCC1 |
| 1810 | CCNc1nc2cc(OC)c(OC)cc2nc1NCCCN1CCCC1=O |

| IC50 [nM] | Compound |
| --- | --- |
| 190 | CCNc1nc2cc(OC)c(Cl)cc2nc1-c1cccs1 |
| 4810 | CCNc1nc2cc(Cl)c(C#CC(C)(O)CC)cc2nc1NCC (stereo not given) |
| 5700 | CCNc1nc2cc(Cl)c(C#Cc3cccc(O)c3)cc2nc1NCC |
| 24000 | CNc1nc2cc(OC)c(OC)cc2nc1Cl |
| 220 | CCNc1nc2cc(OC)c(Cl)cc2nc1-c1ccc2c(ccn2C)c1 |
| 320 | C#CCOc1cc2nc(NCC)c(NCC)nc2cc1Cl |
| 54 | CCNc1nc2cc(Cl)c(C#CCCC#N)cc2nc1NCC |
| 2690 | CCNc1nc2cc(Cl)c(C#CC(C)(C)O)cc2nc1NCC |
| 6320 | CCNc1nc2cc(OC)c(OC)cc2nc1Cl |
| 16400 | COc1cc2nc(Br)c(NCCN3CCN(C)CC3)nc2cc1OC |
| 6660 | CCNc1nc2cc(OC)c(OC)cc2nc1-c1ccncc1 |
| 5 | CCNc1nc2cc(Cl)c(C#CCCO)cc2nc1NCC |
| 1700 | CCNc1nc2cc(OC)c(Cl)cc2nc1-c1ccc(N2CCN(C(=O)OC(C)(C)C)CC2)nc1 |
| 252 | CCNc1nc2cc(OC)c(Cl)cc2nc1NCCCN1CCCC1 |
| 66 | CCNc1nc2cc(OC)c(Cl)cc2nc1-c1cnn(C)c1 |
| 515 | CCNc1nc2cc(OC)c(Cl)cc2nc1NC(C)CCCN(CC)CC (stereo not given) |
| 366 | CCNc1nc2cc(O)c(Cl)cc2nc1NCC |
| 173 | CCNc1nc2cc(OC)c(Cl)cc2nc1NCCN1CCN(C)CC1 |
| 2300 | CCNc1nc2cc(OC)c(Cl)cc2nc1-c1ccc2c(c1)OCO2 |
| 240 | CCNc1nc2cc(OC)c(Cl)cc2nc1-c1cccc(C(N)=O)c1 |
| 556 | CCNc1nc2cc(Cl)c(C#CC(N)=O)cc2nc1NCC |
| 550 | CCNc1nc2cc(OC)c(Cl)cc2nc1-c1cccc(C(=O)NCc2ccccc2)c1 |
| 71 | CCNc1nc2cc(Cl)c(C#N)cc2nc1NCCN1CCN(C)CC1 |

| IC50 [nM] | Compound |
| --- | --- |
| 1500 | CCNc1nc2cc(OC)c(Cl)cc2nc1-c1cncc2ccccc12 |
| 2000 | CCNc1nc2cc(OC)c(Cl)cc2nc1-c1ccccc1-c1ccccc1 |
| 195 | CCNc1nc2cc(OC)c(Cl)cc2nc1NCCCN1CCN(C)CC1 |
| 1170 | CCNc1nc2cc(Cl)c(OC(F)(F)F)cc2nc1NCC |
| 36 | CN1CCN(CCNc2nc3cc(Cl)c(C#CCCO)cc3nc2NCCN2CCN(C)CC2)CC1 |
| 393 | CCNc1nc2cc(Cl)c(C#CCNC(N)=O)cc2nc1NCC |
| 1100 | CCNc1nc2cc(OC)c(Cl)cc2nc1-c1ccc(C(C)=O)s1 |
| 103 | CCNc1nc2cc(Cl)c(C#CCOCCO)cc2nc1NCC |
| 1400 | CCNc1nc2cc(OC)c(Cl)cc2nc1-c1cccc2ncccc12 |
| 122 | CCNc1nc2cc(Cl)c(C#CCC(C)O)cc2nc1NCC (stereo not given) |
| 98 | CCNc1nc2cc(Cl)c([N+](=O)[O-])cc2nc1NCC |
| 257 | CCNc1nc2cc(Cl)c(C#CCOC(=O)CC)cc2nc1NCC |
| 3160 | CCNc1nc2cc(Cl)c(C#CCCN3C(=O)c4ccccc4C3=O)cc2nc1NCC |
| 2000 | CCCC(O)C#Cc1cc2nc(NCC)c(NCC)nc2cc1Cl (stereo not given) |
| 884 | CCCCC#Cc1cc2nc(NCC)c(NCC)nc2cc1Cl |
| 78 | CCNc1nc2cc(OC)c(Cl)cc2nc1-c1cc2ccccc2s1 |
| 4140 | CCNc1nc2cc(Cl)c(NC(C)=O)cc2nc1NCC |
| 5830 | CCNc1nc2cc(Cl)c(CC(=O)CCC(=O)O)cc2nc1NCC |
| 1050 | CCNc1nc2cc(Cl)c(C#CCCN)cc2nc1NCC |
| 596 | CCNc1nc2cc(Cl)c(-c3noc(CCO)n3)cc2nc1NCC |
| 1280 | CCNc1nc2cc(OC)c(OC)cc2nc1NCc1ccccn1 |
| 665 | CCNc1nc2cc(C#CCCO)c(Cl)cc2nc1C#CCCO |
| 50000 | CCNc1nc2cc(OC)c(OC)cc2nc1NCC |

| IC50 [nM] | Compound |
| --- | --- |
| 570 | CCNc1nc2cc(Cl)c(C#CCCCC#N)cc2nc1NCC |
| 840 | CCNc1nc2cc(OC)c(OC)cc2nc1NCCc1ccccn1 |
| 4600 | CCNc1nc2cc(OC)c(Cl)cc2nc1-c1cnc2ccccc2c1 |
| 346 | CN1CCN(CCNc2nc3cc(Cl)c(C#N)cc3nc2-c2ccccn2)CC1 |
| 4400 | CCNc1nc2cc(OC)c(Cl)cc2nc1-c1cccc2[nH]ccc12 |
| 2010 | CCNc1nc2cc(OC)c(OC)cc2nc1NCc1ccncc1 |
| 9 | CCNc1nc2cc(Cl)c(OC)cc2nc1NCC |
| 75 | CCNc1nc2cc(OC)c(Cl)cc2nc1-c1cn[nH]c1 |
| 2000 | CCNc1nc2cc(OC)c(Cl)cc2nc1-c1csc2ccccc12 |
| 1030 | CCNc1nc2cc(Cl)c(C#Cc3ccoc3)cc2nc1NCC |
| 1900 | CCNc1nc2cc(OC)c(Cl)cc2nc1-c1ccc(Cl)cc1 |
| 1400 | CCNc1nc2cc(OC)c(Cl)cc2nc1-c1cc2ccccc2o1 |
| 1 | CCNc1nc2cc(Cl)c(C#CCO)cc2nc1NCC |
| 125 | CCNc1nc2cc(Cl)c(C#CC(C)O)cc2nc1NCC (stereo not given) |
| 12 | C#Cc1cc2nc(NCC)c(NCC)nc2cc1Cl |
| 210 | CCNc1nc2cc(OC)c(Cl)cc2nc1-c1cccc(C(=O)NCc2ccco2)c1 |
| 10000 | CCNc1nc2cc(OC)c(Cl)cc2nc1-c1cccc2ccccc12 |
| 15 | CCNc1nc2cc(Cl)c(C#N)cc2nc1NCc1cccnc1 |
| 10000 | CCNc1nc2cc(Cl)c(N3CC(CCO)C3)cc2nc1NCC |
| 38 | CCNc1nc2cc(Cl)c(C#N)cc2nc1NCC |
| 1090 | CCNc1nc2cc(Cl)c(NC(=O)CCO)cc2nc1NCC |
